According to patent US20190144368A1, “Compounds and compositions for biofilm prevention” (INHIBIO AS, priority 2016, published 2019):
Where “and” joins values, the source holds several entries; their conditions need not be identical. Identical values can stand only once.

Assays:
[1] = tested on: SRB isolate ATCC 29579 Desulfovibrio vulgaris subspecies vulgaris; assay: Biofilm produced by SRB (sulphate reducing bacteria) on carbon steel coupon in fluids; assay type: cell-based; settings: 10 mg/ml, 20 °C for 12 days
Experimental: One SRB isolate (the culture collection strain: ATCC 29579 Desulfovibrio vulgaris subspecies vulgaris) was tested. 1,4-cyclohexanedione and cyclopentanone were diluted in the culture medium ATCC 1249 to a concentration of 10 mg/ml (1%) and added to each their 50 ml Falcon centrifugal tube. A third tube, with 10 ml of medium only (ATCC 1249) was included as a control. 50 μl SRB starting culture was added to each of the three tubes together with a carbon steel coupon. Biofilm was formed on the coupon by incubating at 20° C. for 12 days. After incubation, the coupons were washed in 40 ml sterile saline to remove loosely adhered cells. A sample from this fluid was injected into SRB medium and blackening of the medium was visualized, showing that there were still free-floating bacteria present.

[2] = tested on: Gram negative bacteria (Salmonella isolates); assay: Biofilm formation in polystyrene microtiter plates (crystal violet, OD595), Gram negative bacteria; assay type: cell-based, Salmonella ser. Typhimurium, Salmonella ser. Agona; settings: 10 mg/ml, two days at 20 °C
Experimental: (§1) All experiments were performed by using sterile 96-wells polystyrene microtiter plates (Nunc, Nuncleon, Roskilde, Denmark) under conditions promoting biofilm formation by the different bacterial genera. The Inhibio compound preparations of the invention; 1,3-cyclohexanedione, 1,4-cyclohexanedione, cyclopentanone, 5-ethylcyclohexane-1,3-dione and 5-methyl-1,3 cyclohexanedione 98% were solved directly in Tryptic Soy Broth (TSB) 1+1 or Liquid Microbiology Broth (LB) broth without NaCl (LB^wo/NaCl) to obtain the test concentrations, i.e. from 1 mg/ml to 10 mg/ml.
(§2) One Salmonella ser. Typhimurium (S. Typhimurium), two Salmonella ser. Agona (S. Agona) and two Escherichia coli (E. coli) isolates were used in these studies. The studies performed using 1,3-cyclohexanedione and 1,4-cyclohexanedione were done on Salmonella isolates only. The studies comparing Menthone to 1,3-cyclohexanedione were using two E. coli strains, E. coli 1242 and E. coli 1153, see FIG. 11. The Salmonella isolates were isolated from Norwegian feed factories except one S. Typhimurium strain which was a culture collection strain (ATCC 14028). The E. coli isolates were of animal origin. All strains were stored at −80° C. in BHI supplemented with 15% glycerine and were recovered on blood agar at 37.0±1.0° C. The bacterial cultures were then transferred into LB broth and incubated statically overnight at 37.0±1.0° C. to obtain an overnight working culture. A total of 30 μl of this suspension was transferred to each well in 96 wells polystyrene microtiter plates (Nunc, Nuncleon, Roskilde, Denmark) in triplets. The wells were containing 100 μl LB^wo/NaCl (bacto-tryptone 10 g/l, yeast extract 5 g/l) with 1,3-cyclohexanedione dissolved in concentration 0 mg/ml, 1 mg/ml and 10 mg/ml in the total amount of broth and 1,4-cyclohexanedione and cyclopentanone at 0 mg/ml and 10 mg/ml. The microtiter plates were incubated statically for two days, at 20±1.0° C. After incubation, OD595 was measured before the plates were gently washed one time with 150 μl tap water. The plates were dried in room temperature before addition of 140 μl 1% crystal violet (Sigma-Aldrich). After 30 minutes incubation in room temperature, the plates were washed three times with tap water before addition of 140 μl ethanol:acetone (70:30 w:w) and incubated for another 10 minutes in room temperature. OD595 was measured in a microplate photometer (Multiscan EX) after the bound dye was dissolved using ethanol:acetone. For each strain, the result was calculated by subtracting the median OD595 of the three parallels of the control (test broth only) from the median OD595 of the three parallels of sample. Further, the averages of the Gram negative strains were calculated. Three independent experiments were performed and the average was evaluated.

[3] = tested on: Gram positive bacteria (three Staphylococcus aureus strains); assay: Biofilm formation in polystyrene microtiter plates (crystal violet, OD595), Gram positive bacteria; assay type: cell-based; settings: one day at 37 °C
Experimental: as §1
Three Staphylococcus aureus strains of animal origin were used in this study. All strains were stored at −80° C. in Brain Heart Infusion Broth (BHI) (Difco, BD, Franklin Lakes, N.J., USA) supplemented with 15% glycerine (Merck KGaA, Darmstadt, Germany) and were recovered on blood agar at 37.0±1.0° C. The bacterial cultures were then transferred into TSB and were incubated statically overnight at 37.0±1.0° C. to obtain an overnight working culture. A total of 2 μl of this suspension was transferred to each 96 wells of polystyrene microtiter plates (Nunc, Nuncleon, Roskilde, Denmark) containing 198 μl TSB 1+1 with dissolved Inhibio compounds in the following concentrations: 0 mg/ml, 1 mg/ml and 10 mg/ml for 1,3-cyclohexanedione; 0 mg/ml and 10 mg/ml for 1,4-cyclohexanedione; and 0 mg/ml, 1 mg/ml, 2 mg/ml and 10 mg/ml for 5-ethylcyclohexane-1,3-dione and 5-Methyl-1,3-cyclohexanedione in the total amount of broth. Three parallels of each strain were used and the microtiter plates were incubated statically for one day, at 37±1.0° C. After incubation, OD595 was measured in a microplate photometer (Multiscan EX; Thermo Fisher Scientific Inc, Waltham, Mass., USA) before the plates were gently washed three times with 290 μl tap water. The plates were dried in room temperature before addition of 220 μl 1% crystal violet (Sigma-Aldrich, St. Louis, Mo., USA). After 30 minutes incubation in room temperature, the plates were washed three times with tap water before the addition of 220 μl ethanol:acetone (70:30 w:w) to dissolve the bound dye. The plates were incubated for 10 minutes in room temperature before OD595 was measured after the bound dye was dissolved using ethanol:acetone. For each strain, the result was calculated by subtracting the median OD595 of the three parallels of the control (test broth only) from the median OD595 of the three parallels of sample. Further, the average result of all three Gram positive strains included in the study were calculated. Three independent experiments were performed and the average was evaluated.

[4] = tested on: E. coli 1242 and E. coli 1153; assay: Biofilm formation in microtiter plates, comparison of 1,3-cyclohexanedione and menthone; assay type: cell-based, Escherichia coli; settings: 1 mg/ml, two values, one per strain (E. coli 1242, E. coli 1153)
Experimental: as §1
as §2, with “A total of 30 μl of this suspension was transferred to each well in 96 wells polystyrene microtiter plates (Nunc, Nuncleon, Roskilde, Denmark) in triplets. The wells were containing 100 μl LB^wo/NaCl (bacto-tryptone 10 g/l, yeast extract 5 g/l) with 1,3-cyclohexanedione dissolved in concentration 0 mg/ml, 1 mg/ml and 10 mg/ml in the total amount of broth and 1,4-cyclohexanedione and cyclopentanone at 0 mg/ml and 10 mg/ml. The microtiter plates were incubated statically for two days, at 20±1.0° C.” left out, “The plates were dried in room temperature before addition of 140 μl 1% crystal violet (Sigma-Aldrich). After 30 minutes incubation in room temperature, the plates were washed three times with tap water before addition of 140 μl ethanol:acetone (70:30 w:w) and incubated for another 10 minutes in room temperature.” left out

## O=C1CCCC1 [cyclopentanone, Cyclopentanone]
[1]
  biofilm visualized on carbon steel coupon: only scarce amount of biofilm could be visualized
[2]
  decrease in biofilm formation, percentage of the control: 77%

## O=C1CCC(=O)CC1 [1,4-cyclohexanedione]
[3]; 10 mg/ml
  decrease in biofilm formation, percentage of the control: 53%
[1]
  biofilm visualized on carbon steel coupon: only scarce amount of biofilm could be visualized
[2]
  decrease in biofilm formation, percentage of the control: 91%

## CC1CCC(C(C)C)C(=O)C1 (stereo not drawn) [menthone, 2-isopropyl-5-methylcyclohexane-1-on, reference compound]
[4]
  decrease in biofilm formation: 27% and 48%

## CCC1CC(=O)CC(=O)C1 [5-ethylcyclohexane-1,3-dione]
[3]; 1 mg/ml
  decrease in biofilm formation, percentage of the control: 55%
[3]; 2 mg/ml
  decrease in biofilm formation, percentage of the control: 74%
[3]; 10 mg/ml
  decrease in biofilm formation, percentage of the control: 98%

## CC1CC(=O)CC(=O)C1 [5-methyl-1,3-cyclohexanedione]
[3]; 1 mg/ml
  decrease in biofilm formation, percentage of the control: 32%
[3]; 2 mg/ml
  decrease in biofilm formation, percentage of the control: 85%
[3]; 10 mg/ml
  decrease in biofilm formation, percentage of the control: 98%
